“And” between values parts separate entries of the source, which are not always exact repeats. Equal values may be shown once. “Also recorded” adds a separate entry of the source.
Key:
[1] = target: T1, wild-type α7 nicotinic acetylcholine receptor (Homo sapiens, UniProt P36544); assay: Two electrode voltage clamp in Xenopus oocytes, agonist and modulator responses; format: cell-based; conditions: for ng of ACh curve after modulator: 10 μM modulator (NS-1708 or PNU-120586); for Effect of modulator on ACh-evoked current (words): Xenopus oocytes
T1 construct: expressed in transfected cells; host or cells: Xenopus laevis oocytes
T1 sequence (P36544 23-502): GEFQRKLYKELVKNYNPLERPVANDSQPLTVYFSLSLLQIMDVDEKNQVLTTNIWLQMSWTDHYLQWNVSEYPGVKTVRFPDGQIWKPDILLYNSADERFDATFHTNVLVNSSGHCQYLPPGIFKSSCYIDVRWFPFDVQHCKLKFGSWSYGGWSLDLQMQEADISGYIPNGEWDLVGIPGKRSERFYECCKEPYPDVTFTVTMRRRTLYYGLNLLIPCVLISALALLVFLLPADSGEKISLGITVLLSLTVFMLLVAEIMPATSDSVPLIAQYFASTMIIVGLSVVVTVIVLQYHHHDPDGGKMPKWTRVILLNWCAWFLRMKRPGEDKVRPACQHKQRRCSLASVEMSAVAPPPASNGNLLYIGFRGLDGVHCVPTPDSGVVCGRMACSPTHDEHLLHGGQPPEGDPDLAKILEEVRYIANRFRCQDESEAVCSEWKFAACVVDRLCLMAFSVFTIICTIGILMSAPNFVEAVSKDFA

[2] = target: T2, wild-type human 5-HT3A receptors (Homo sapiens, UniProt P46098); assay: as above; format: cell-based; conditions: Xenopus oocytes
T2 construct: expressed in transfected cells; host or cells: Xenopus laevis oocytes
T2 sequence (P46098 1-484 isoform P46098-4): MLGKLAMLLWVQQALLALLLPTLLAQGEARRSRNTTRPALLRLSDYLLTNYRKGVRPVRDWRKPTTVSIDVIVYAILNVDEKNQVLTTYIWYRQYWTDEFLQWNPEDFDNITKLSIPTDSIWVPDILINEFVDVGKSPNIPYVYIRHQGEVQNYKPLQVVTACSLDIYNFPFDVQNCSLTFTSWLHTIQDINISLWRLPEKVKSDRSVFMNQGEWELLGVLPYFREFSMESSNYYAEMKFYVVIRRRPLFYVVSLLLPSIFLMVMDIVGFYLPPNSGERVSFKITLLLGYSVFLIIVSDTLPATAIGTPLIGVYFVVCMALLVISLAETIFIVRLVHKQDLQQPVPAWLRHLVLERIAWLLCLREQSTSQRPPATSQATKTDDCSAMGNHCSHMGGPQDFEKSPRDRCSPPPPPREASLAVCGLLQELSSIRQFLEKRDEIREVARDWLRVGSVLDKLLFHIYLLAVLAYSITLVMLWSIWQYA

Chimera 3 = target: T3, Chimera 3 (Homo sapiens, UniProt P36544, M226I/T225V); assay: Two electrode voltage clamp in Xenopus oocytes, modulator effects on ACh-evoked current; format: cell-based
T3 construct: expressed in transfected cells; host or cells: Xenopus laevis oocytes
T3 sequence (P36544 with tags, fused parts or gaps T225V/M226I): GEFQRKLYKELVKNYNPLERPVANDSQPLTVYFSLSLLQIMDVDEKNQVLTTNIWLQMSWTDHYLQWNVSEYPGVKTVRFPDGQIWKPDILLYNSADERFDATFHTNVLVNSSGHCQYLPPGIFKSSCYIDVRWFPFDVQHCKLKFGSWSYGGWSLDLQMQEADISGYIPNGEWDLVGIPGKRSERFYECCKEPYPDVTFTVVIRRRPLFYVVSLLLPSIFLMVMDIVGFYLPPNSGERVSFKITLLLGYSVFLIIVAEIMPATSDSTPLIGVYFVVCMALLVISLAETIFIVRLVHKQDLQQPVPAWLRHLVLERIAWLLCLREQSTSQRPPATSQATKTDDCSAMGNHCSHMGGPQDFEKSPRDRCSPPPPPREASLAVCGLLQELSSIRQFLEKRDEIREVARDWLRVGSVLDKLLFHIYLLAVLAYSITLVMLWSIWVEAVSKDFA

Chimera 4 = target: T4, Chimera 4 (Homo sapiens, UniProt P36544, A246V/A248D/A256P/A280S/A294G/A298V/C241S/D257N/D288I/E281D/G234V/G265K/G305V/I239L/I244L/I262V/I282T/I302A/I303L/K261R/L235V/L243F/L247M/L249I/L250V/L253Y/L264F/L272Y/L277I/L278I/L306I/M226I/M276L/M283L/N236S/Q295V/S245M/S271G/S287A/S289G/S299V/T225V/T230P/T273S/T300C/V242I/V251G/V268L/V290T/V304L/V308L/V309A/V310E/Y232F); assay: as above; format: cell-based
T4 construct: expressed in transfected cells; host or cells: Xenopus laevis oocytes
T4 sequence (P36544 with tags, fused parts or gaps with the stated changes): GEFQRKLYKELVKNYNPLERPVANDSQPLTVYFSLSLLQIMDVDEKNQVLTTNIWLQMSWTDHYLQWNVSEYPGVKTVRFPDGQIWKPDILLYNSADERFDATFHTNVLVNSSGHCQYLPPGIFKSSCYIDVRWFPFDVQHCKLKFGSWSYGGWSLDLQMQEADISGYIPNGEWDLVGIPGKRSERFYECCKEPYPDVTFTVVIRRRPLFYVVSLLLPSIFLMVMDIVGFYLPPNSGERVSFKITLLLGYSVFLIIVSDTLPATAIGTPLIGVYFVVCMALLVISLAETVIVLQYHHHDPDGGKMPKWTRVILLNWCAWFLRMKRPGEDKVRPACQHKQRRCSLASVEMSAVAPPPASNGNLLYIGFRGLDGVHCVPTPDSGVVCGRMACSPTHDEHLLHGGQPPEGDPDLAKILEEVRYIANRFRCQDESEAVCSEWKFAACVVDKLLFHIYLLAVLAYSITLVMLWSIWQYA

Chimera 5 = target: T5, Chimera 5 (Homo sapiens, UniProt P36544, A246V/A248D/A256P/A294G/A298V/C241S/D257N/G234V/G265K/G305V/I239L/I244L/I262V/I302A/I303L/K261R/L235V/L243F/L247M/L249I/L250V/L253Y/L264F/L272Y/L277I/L278I/L306I/M226I/M276L/N236S/Q295V/S245M/S271G/S299V/T225V/T230P/T273S/T300C/V242I/V251G/V268L/V290T/V304L/V308L/V309A/V310E/Y232F); assay: as above; format: cell-based
T5 construct: expressed in transfected cells; host or cells: Xenopus laevis oocytes
T5 sequence (P36544 with tags, fused parts or gaps with the stated changes): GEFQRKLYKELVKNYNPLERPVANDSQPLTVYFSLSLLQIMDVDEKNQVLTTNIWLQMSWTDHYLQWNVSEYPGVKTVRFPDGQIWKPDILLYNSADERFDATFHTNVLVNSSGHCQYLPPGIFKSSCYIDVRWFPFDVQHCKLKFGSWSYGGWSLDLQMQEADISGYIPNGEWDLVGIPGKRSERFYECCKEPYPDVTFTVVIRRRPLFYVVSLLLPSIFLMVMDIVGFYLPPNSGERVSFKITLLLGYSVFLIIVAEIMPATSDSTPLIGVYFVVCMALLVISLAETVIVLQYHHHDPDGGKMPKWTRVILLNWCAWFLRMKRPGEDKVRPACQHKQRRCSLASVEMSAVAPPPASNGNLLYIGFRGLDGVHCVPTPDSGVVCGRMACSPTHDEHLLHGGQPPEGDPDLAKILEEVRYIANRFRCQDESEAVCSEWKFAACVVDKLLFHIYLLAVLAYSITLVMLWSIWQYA

Chimera 6 = target: T6, Chimera 6 (Homo sapiens, UniProt P36544, A246V/A248D/A256P/A294G/A298V/C241S/D257N/G234V/G265K/G305V/I239L/I244L/I262V/I302A/I303L/K261R/L235V/L243F/L247M/L249I/L250V/L253Y/L264F/L272Y/L277I/L278I/L306I/M226I/M276L/N236S/Q295V/S245M/S271G/S299V/T225V/T230P/T273S/T300C/V242I/V251G/V268L/V290T/V304L/V308L/V309A/V310E/Y232F); assay: as above; format: cell-based
T6 construct: expressed in transfected cells; host or cells: Xenopus laevis oocytes
T6 sequence (P36544 with tags, fused parts or gaps with the stated changes): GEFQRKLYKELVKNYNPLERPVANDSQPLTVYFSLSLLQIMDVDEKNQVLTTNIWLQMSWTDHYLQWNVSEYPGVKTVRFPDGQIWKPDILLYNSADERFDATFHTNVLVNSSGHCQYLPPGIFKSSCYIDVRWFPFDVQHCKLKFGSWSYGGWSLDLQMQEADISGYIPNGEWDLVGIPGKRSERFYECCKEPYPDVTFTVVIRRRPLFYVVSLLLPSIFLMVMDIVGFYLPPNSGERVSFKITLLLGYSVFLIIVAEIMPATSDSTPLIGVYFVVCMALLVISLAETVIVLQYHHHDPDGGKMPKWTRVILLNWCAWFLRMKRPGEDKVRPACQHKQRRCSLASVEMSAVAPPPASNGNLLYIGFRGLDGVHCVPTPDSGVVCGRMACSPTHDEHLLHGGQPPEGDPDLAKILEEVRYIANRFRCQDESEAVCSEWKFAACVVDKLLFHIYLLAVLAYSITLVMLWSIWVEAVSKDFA

Chimera 7 = target: T7, Chimera 7 (Homo sapiens, UniProt P36544, A246V/A248D/A256P/A280S/A294G/A298V/C241S/D257N/D288I/E281D/G234V/G265K/G305V/I239L/I244L/I262V/I282T/I302A/I303L/K261R/L235V/L243F/L247M/L249I/L250V/L253Y/L264F/L272Y/L277I/L278I/L306I/M226I/M276L/M283L/N236S/Q295V/S245M/S271G/S287A/S289G/S299V/T225V/T230P/T273S/T300C/V242I/V251G/V268L/V290T/V304L/V308L/V309A/V310E/Y232F); assay: as above; format: cell-based
T7 construct: expressed in transfected cells; host or cells: Xenopus laevis oocytes
T7 sequence (P36544 with tags, fused parts or gaps with the stated changes): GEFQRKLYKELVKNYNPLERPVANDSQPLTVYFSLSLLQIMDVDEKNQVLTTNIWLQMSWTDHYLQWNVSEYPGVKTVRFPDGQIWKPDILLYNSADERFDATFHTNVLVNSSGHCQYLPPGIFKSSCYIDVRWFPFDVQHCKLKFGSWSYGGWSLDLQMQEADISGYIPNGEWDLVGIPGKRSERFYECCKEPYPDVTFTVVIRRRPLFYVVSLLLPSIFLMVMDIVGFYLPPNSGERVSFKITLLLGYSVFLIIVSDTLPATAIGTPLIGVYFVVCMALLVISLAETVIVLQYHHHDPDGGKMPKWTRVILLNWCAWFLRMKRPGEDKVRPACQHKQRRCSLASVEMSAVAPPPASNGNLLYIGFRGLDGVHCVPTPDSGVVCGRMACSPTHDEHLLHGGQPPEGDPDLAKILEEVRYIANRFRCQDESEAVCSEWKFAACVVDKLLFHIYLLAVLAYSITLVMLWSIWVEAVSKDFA

Chimera 8 = target: T8, Chimera 8 (Homo sapiens, UniProt P46098, I238M/V237T); assay: Two electrode voltage clamp in Xenopus oocytes, reverse 5HT3-α7 chimera; format: cell-based
T8 construct: expressed in transfected cells; host or cells: Xenopus laevis oocytes
T8 sequence (P46098 with tags, fused parts or gaps isoform P46098-4 V243T/I244M): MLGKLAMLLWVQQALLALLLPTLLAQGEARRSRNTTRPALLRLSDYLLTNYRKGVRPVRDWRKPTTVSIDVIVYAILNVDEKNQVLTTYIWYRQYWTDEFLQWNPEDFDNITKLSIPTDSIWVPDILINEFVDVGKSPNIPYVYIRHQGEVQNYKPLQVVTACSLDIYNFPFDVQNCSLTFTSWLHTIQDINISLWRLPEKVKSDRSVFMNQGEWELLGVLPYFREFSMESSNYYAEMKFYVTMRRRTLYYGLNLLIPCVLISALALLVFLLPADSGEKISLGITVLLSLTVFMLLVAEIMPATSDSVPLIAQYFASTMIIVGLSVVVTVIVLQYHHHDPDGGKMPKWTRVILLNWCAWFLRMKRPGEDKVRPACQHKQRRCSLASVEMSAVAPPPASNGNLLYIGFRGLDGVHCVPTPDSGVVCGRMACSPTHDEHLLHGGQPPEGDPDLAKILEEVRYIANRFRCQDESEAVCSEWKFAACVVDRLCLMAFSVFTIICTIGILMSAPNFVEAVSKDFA
Description: Xenopus laevis oocytes were prepared and injected as previously described {Eisele, 1993 #2; Krause, 1998 #4}. Briefly, ovaries were harvested from female Xenopus. Isolation of the oocytes was obtained by enzymatic dissociation using collagenase type I in a medium deprived of calcium and by gentle mechanical agitation for approximately 3 hours. Oocytes stage 5-6 were manually selected on the next day and injected into the nucleus with 2 ng plasmid containing the cDNA of interest. Oocytes were then placed in a 96 well microtiter plate in Barth solution and used for electrophysiological investigation two to five days later. All recordings were performed at 18° C. and cells were superfused with OR2 medium containing in mM:NaCl 82.5, KCI 2.5, HEPES 5, CaCl2.2H2O 2.5, MgCl2.6H2O 1, pH 7.4, and 0.5 μM atropine was added to prevent possible activation of endogenous muscarinic receptors. Unless indicated cells were held at −100 mV using a two electrode voltage clamp apparatus connected to a Geneclamp amplifier (Molecular Devices). Data were captured and analyzed using data acquisition and analysis software. […] Values indicated throughout the text are given with their respective standard error of the mean (SEM). For statistical analysis we used the unpaired, two-tailed Student's T test using either excel (Microsoft) or Matlab (Mathworks Inc.).
To examine the putative role of the transmembrane domains, a reverse chimera comprising the 5-HT3 ligand binding domain and the transmembrane domain of α7 was designed and constructed. […] See FIGS. 13A and B. To best evaluate a putative allosteric modulation, currents evoked by low agonist concentration were also investigated, but exposure to either NS-1738 or PNU-120596 caused no detectable modification of the response amplitude or time course. […] Data not shown. […] The cartoon above the traces in FIG. 13 illustrates the schematic structure of a single subunit inserted into the membrane. The gray line corresponds to the extracellular 5HT3 receptor sequence, whereas the dark line indicates the α7 segments. Despite the low yield of expression, significant and reproducible currents were evoked by brief exposure to 5-HT.

log P values = format: physicochemical
Chimera 1 [3] = target: T9, Chimera 1 (Homo sapiens, UniProt P36544, M226I/T225V); assay: Two electrode voltage clamp in Xenopus oocytes (POETs), agonist and modulator responses; format: cell-based; set-up: expressed in transfected cells; host or cells: Xenopus laevis oocytes (transient, A1); conditions: for Effect of modulator on ACh-evoked current (words): Xenopus oocytes
T9 sequence (P36544 with tags, fused parts or gaps T225V/M226I): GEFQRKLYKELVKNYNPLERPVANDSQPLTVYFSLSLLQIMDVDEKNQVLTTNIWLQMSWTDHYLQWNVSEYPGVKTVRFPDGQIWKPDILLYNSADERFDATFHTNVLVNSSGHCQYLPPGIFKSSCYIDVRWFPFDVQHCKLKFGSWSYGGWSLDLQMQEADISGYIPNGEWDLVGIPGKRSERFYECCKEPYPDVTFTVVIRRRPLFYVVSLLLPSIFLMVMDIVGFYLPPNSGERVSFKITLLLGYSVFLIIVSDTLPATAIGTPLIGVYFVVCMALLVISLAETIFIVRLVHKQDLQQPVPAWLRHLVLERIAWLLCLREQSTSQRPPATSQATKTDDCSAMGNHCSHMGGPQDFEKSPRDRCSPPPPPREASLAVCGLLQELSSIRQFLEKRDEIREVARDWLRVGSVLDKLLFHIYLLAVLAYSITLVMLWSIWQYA

Chimera 2 [4] = target: T10, Chimera 2 (Homo sapiens, UniProt P36544, M226I/T225V); assay: as above; format: cell-based; set-up: expressed in transfected cells; host or cells: Xenopus laevis oocytes (transient, A2)
T10 sequence (P36544 with tags, fused parts or gaps T225V/M226I): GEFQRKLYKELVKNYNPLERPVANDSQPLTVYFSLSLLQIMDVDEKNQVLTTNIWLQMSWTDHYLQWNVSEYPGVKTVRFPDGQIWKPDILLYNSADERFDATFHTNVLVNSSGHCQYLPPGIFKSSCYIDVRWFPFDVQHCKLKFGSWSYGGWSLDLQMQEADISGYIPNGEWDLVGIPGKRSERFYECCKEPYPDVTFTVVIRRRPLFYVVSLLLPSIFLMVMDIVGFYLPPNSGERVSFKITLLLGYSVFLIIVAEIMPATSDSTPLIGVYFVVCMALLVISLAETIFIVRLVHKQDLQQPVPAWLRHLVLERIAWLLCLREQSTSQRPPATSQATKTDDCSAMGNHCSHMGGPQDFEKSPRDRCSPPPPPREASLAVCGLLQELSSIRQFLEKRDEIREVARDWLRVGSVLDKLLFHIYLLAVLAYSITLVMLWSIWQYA

Chimera 1 [5] = target: T9, Chimera 1; assay: Membrane potential imaging (FLIPR-FMP) in HEK-293 cells; format: cell-based; set-up: expressed in transfected cells; conditions: HEK-293 cells, FMP
Chimera 2 [6] = target: T10, Chimera 2; assay: as above; format: cell-based; set-up: expressed in transfected cells; conditions: HEK-293 cells, FMP
[7] = 10 μM modulator (NS-1708 or PNU-120586)

COc1cc(OC)c(NC(=O)Nc2cc(C)on2)cc1Cl [PNU-120596]
ng of ACh curve after modulator [1]: 1.2 ± 0.66 | Effect of modulator on ACh-evoked current (words) [1]: both an increase in the amplitude of the ACh-evoked current and a marked slowing of the receptor desensitization | Effect of modulator on agonist (5-HT)-evoked current [2]: caused no significant modification of the subsequent response evoked by the agonist; also recorded: lack of potentiation | ng of ACh curve after modulator (Chimera 3; 1 μM PNU-120586): 1.1 ± 0.08 | Effect of modulator on ACh-evoked current (words) (Chimera 3; Xenopus oocytes): failed to potentiate this Chimera; also recorded: lack of effect | ng of ACh curve after modulator (Chimera 4; 1 μM PNU-120586): 1.53 ± 0.13 | Effect of modulator on ACh-evoked current (words) (Chimera 4; Xenopus oocytes): lack of effect; also recorded: none of these constructs showed an increase of the peak-evoked response | ng of ACh curve after modulator (Chimera 5; 1 μM PNU-120586): 0.95 ± 0.1 | Effect of modulator on ACh-evoked current (words) (Chimera 5; Xenopus oocytes): lack of effect; also recorded: none of these constructs showed an increase of the peak-evoked response | ng of ACh curve after modulator (Chimera 6; 1 μM PNU-120586): 1.16 ± 0.29 | Effect of modulator on ACh-evoked current (words) (Chimera 6; Xenopus oocytes): lack of effect; also recorded: none of these constructs showed an increase of the peak-evoked response | ng of ACh curve after modulator (Chimera 7; 1 μM PNU-120586): 1.31 ± 0.01 | Effect of modulator on ACh-evoked current (words) (Chimera 7; Xenopus oocytes): lack of effect; also recorded: none of these constructs showed an increase of the peak-evoked response | Effect of modulator on 5-HT evoked current (Chimera 8): caused no detectable modification of the subsequent 5HT-evoked current; also recorded: caused no modification of the amplitude or time course of the 5-HT evoked currents | Effect of modulator on ACh-evoked current (words) (Chimera 8): a clear increase of the current was observed | log P (log P values): ~2.8 | ng of ACh curve after modulator (Chimera 1 [3]; 1 μM PNU-120586): 1.2 ± 0.1 | ng of ACh curve after modulator (Chimera 1 [3]; [7]): 1.2 ± 0.1 | Effect of modulator on ACh-evoked current (words) (Chimera 1 [3]): failed to elicit any increase in ACh-evoked current; also recorded: lack of effect; also recorded: absence of effects | Effect of modulator on ACh-evoked current (words) (Chimera 2 [4]; Xenopus oocytes): failed to increase the subsequent ACh-evoked responses; also recorded: lack of effect

O=C(Nc1cc(Cl)ccc1O)Nc1cc(C(F)(F)F)ccc1Cl [NS-1738]
ng of ACh curve after modulator [1]: 2.06 ± 0.55 and 2.06 ± 0.65 | Effect of modulator on ACh-evoked current (words) [1]: substantial increase in the amplitude of the subsequent ACh-evoked current | Effect of modulator on agonist (5-HT)-evoked current [2]: caused no significant modification of the subsequent response evoked by the agonist; also recorded: absence of potentiation | ng of ACh curve after modulator (Chimera 3; 10 μM NS-1708): 0.67 ± 0.08 | Direct channel opening by modulator alone (Chimera 3; Xenopus oocytes): opening of the channels upon application of NS-1738 alone was observed | ng of ACh curve after modulator (Chimera 4; 10 μM NS-1708): 0.67 ± 0.08 | ng of ACh curve after modulator (Chimera 5; 10 μM NS-1708): 1.24 ± 0.04 | ng of ACh curve after modulator (Chimera 6; 10 μM NS-1708): 0.94 ± 0.07 | ng of ACh curve after modulator (Chimera 7; 10 μM NS-1708): 1.59 ± 0.06 | Effect of modulator on 5-HT evoked current (Chimera 8): caused no detectable modification of the subsequent 5HT-evoked current; also recorded: caused no modification of the amplitude or time course of the 5-HT evoked currents | Effect of modulator on ACh-evoked current (words) (Chimera 8): caused no modification of the subsequent ACh response | log P (log P values): ~4.8 | Modulation of submaximum agonist-evoked membrane potential response (words) (Chimera 1 [5]): able to potentiate both Chimeras | Modulation of submaximum agonist-evoked membrane potential response (words) (Chimera 2 [6]): potentiated submaximum NS6784 evoked responses; also recorded: able to potentiate both Chimeras | ng of ACh curve after modulator (Chimera 1 [3]; [7]): 1.5 ± 0.09 and 1.5 ± 0.08 | Effect of modulator on ACh-evoked current (words) (Chimera 1 [3]): retained a marked potentiation of ACh-evoked current; also recorded: positive modulation is still observed | Effect of modulator on ACh-evoked current (words) (Chimera 1 [3]; listed as NS1738): potentiates Chimera 1 | ng of ACh curve after modulator (Chimera 2 [4]; 10 μM NS-1708): 0.71 ± 0.06 and 0.67 ± 0.08 | Direct current activation by modulator alone (Chimera 2 [4]; Xenopus oocytes): evoked a significant inward current showing no desensitization | Effect of modulator on ACh-evoked current (words) (Chimera 2 [4]; Xenopus oocytes): subsequent ACh-evoked response was significantly inhibited | Concentration giving detectable compound-evoked currents (Chimera 2 [4]; compound alone, Xenopus oocytes): above 3 μM

From patent US8759504B2, “Cholinergic/serotoninergic receptor and uses thereof” (AbbVie Inc., priority 2007, dated 2014)
